Activity calls are given as the source filed them.

IC50, AC50 and EC50 data for five compounds are collected here from ChEMBL document CHEMBL1201862, “PubChem BioAssay data set” (2004).

For assay [1], the target named is Ephrin type-A receptor 4 (Mus musculus, UniProt Q03137). The assay can be described thus: EphA4 ligand-binding antagonists – biochemical, colorimetric, mouse EphA4, primary screen (AID 689). Type of assay: functional.
Assay [2] concerns the target Neuropeptide Y receptor type 1 (Homo sapiens, UniProt P25929). In kind it is functional.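 Note: HEK293 cells with a CNG channel challenged with NPY then isoproterenol; potency as antagonist that reverses NPY suppression of cAMP signal.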
Assay [3] has as its target Neuropeptide Y receptor type 2 (Homo sapiens, UniProt P49146). In kind it is functional, cell-based.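 Note: HEK293 cells expressing the receptor and a CNG channel; stimulus was NPY near EC95 followed by isoproterenol to raise cAMP; antagonist potency measured as restoring cAMP signal that NPY suppresses.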
Assay [4] addresses Voltage-gated inwardly rectifying potassium channel KCNH2 (Homo sapiens, UniProt Q12809). The following applies: Potency.
Assay [5] deals with Large T antigen (Simian virus 40, UniProt P03070). Type of assay: functional, Betapolyomavirus macacae.
Chain of Large T antigen (P03070 whole entry): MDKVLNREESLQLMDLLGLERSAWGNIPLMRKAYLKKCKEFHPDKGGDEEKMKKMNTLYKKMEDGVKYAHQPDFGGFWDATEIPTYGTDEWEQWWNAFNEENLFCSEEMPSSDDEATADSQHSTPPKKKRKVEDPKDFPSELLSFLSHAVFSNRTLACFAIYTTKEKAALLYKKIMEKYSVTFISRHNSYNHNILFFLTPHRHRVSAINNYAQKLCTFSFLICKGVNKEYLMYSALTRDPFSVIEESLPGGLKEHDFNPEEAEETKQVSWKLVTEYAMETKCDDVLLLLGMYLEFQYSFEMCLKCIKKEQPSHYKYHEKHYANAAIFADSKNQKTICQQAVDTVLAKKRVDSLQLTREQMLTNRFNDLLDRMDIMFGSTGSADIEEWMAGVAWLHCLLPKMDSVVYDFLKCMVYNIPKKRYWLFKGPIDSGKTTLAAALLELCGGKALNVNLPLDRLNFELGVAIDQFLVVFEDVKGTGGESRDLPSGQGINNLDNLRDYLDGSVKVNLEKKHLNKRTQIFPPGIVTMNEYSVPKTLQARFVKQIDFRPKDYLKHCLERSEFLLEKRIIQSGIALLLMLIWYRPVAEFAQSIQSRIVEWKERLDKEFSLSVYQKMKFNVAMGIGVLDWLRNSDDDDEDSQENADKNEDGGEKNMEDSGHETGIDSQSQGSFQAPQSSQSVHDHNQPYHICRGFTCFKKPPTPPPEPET
Assay [6] in a line: Luminescent dose response cell-based high throughput screening assay for inhibitors of the Janus kinase 2 mutant JAK2V617F. [Related pubchem assays: 1446 (Primary screen.), 1521 (Confirmation assay.), 1486 (Counter screen.)]. Type of assay: functional. On the technique in general: A counterscreen serves to expose hits that act by an unwanted route or on another target.
In assay [7] the target is T1, Ion channel NompC (Danio rerio, UniProt Q7T1G6). The assay can be described thus: Late stage counterscreen for the probe development effort to identify selective agonists of the Transient Receptor Potential Channels 3 (TRPML3): fluorescence-based cell-based dose response assay for TRPN1 agonists. Type of assay: functional.
T1 sequence (Q7T1G6 whole entry): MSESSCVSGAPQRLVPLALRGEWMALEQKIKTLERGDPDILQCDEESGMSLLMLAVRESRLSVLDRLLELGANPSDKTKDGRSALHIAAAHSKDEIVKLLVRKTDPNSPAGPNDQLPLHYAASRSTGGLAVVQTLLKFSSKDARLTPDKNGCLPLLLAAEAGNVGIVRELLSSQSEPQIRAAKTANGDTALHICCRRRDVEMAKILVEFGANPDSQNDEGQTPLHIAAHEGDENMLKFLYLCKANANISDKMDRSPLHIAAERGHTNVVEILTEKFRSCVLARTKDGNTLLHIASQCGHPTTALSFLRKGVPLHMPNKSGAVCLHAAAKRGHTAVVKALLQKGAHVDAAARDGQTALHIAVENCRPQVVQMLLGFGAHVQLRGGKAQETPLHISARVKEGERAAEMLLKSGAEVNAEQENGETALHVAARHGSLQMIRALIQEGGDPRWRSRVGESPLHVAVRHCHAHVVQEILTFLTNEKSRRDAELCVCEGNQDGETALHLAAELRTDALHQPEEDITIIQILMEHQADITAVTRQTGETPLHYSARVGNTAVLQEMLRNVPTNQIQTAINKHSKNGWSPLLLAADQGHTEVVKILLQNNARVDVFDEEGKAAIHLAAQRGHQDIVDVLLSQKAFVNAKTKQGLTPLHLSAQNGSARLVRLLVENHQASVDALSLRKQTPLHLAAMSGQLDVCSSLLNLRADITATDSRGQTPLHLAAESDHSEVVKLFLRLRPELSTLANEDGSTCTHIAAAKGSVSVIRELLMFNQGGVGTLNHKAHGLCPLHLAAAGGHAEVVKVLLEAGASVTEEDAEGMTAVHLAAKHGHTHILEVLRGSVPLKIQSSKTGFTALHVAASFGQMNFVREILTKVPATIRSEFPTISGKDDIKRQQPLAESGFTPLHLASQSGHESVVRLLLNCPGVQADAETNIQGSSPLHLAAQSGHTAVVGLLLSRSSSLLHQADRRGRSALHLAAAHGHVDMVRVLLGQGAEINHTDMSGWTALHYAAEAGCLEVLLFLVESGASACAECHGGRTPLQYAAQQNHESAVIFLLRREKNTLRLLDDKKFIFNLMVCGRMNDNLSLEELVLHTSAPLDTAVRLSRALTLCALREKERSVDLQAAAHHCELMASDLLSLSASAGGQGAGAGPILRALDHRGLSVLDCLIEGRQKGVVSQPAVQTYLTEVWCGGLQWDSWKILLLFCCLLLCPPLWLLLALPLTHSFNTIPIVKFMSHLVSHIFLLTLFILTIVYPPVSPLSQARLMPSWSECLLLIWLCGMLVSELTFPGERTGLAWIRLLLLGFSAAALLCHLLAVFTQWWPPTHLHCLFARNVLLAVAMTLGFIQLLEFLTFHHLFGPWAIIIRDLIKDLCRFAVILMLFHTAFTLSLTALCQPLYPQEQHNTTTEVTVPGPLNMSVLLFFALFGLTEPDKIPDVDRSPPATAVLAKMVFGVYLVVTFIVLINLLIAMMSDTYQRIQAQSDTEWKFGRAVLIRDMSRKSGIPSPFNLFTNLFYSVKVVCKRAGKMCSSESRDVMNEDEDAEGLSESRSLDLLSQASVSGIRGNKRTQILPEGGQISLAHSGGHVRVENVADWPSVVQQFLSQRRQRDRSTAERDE
In assay [8] the target is T1, Ion channel NompC. Nature of the assay: Fluorescence counterscreen assay for TRPML3 agonists: dose response cell-based high-throughput screening assay to identify agonists of the transient receptor potential channel N1 (TRPN1). [Related pubchem assays: 1526, 1424, 1448 ]. Type of assay: functional.
In assay [9] the target is T2, Mucolipin-3 (Homo sapiens, UniProt Q8TDD5).
T2 sequence (Q8TDD5 whole entry): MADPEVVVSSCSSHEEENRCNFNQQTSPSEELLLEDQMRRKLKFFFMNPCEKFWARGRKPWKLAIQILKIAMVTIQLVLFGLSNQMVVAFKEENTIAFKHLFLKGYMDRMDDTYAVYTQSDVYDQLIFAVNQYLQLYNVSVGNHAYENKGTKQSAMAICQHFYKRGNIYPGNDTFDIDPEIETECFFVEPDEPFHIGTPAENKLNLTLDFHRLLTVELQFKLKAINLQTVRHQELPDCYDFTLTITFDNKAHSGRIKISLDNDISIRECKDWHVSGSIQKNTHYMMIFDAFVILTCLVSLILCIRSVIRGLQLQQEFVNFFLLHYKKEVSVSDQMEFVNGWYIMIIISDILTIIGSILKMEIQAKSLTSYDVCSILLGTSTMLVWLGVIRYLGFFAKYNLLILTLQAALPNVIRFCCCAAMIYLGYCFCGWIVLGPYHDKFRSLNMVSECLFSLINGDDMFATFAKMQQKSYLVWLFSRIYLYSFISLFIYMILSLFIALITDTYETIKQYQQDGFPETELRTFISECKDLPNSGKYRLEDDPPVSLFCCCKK
Nature of the assay: Dose response cell-based high-throughput screening assay for agonists of the transient receptor potential channel ML3 (TRPML3). [Related pubchem assays: 1526, 1424, 1448 ]. Type of assay: functional.

Assay [10] deals with T2, Mucolipin-3. Nature of the assay: human mucolipin-3 activators, concentration-response – cell-based, calcium fluorescence, dose response (AID 2510). Type of assay: functional.
Assay [11] deals with A-375. Nature of the assay: proliferation inhibition in MITF-low A375 cells – cell-based, cherry-pick samples, set 2, counter-screen for MITF modulator project, dose response (AID 540335). In kind it is functional. The following applies: Homo sapiens.
Assay [12] is described as follows: A549 cell cytotoxicity, dose response, cytotoxicity control, plate reader, cherry-pick, antagonist series (AID 743412). In kind it is functional, cell-based.
A short description of assay [13]: general cell-killing toxicity readout – plate reader, dry powder samples, cytotoxicity control for PAX8 inhibitor project, dose response (AID 743021). Type of assay: functional, cell-based.
In assay [14] the target is Sphingosine 1-phosphate receptor 1 (Homo sapiens, UniProt P21453). In kind it is functional.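 Note: Tango beta-arrestin reporter U2OS cells stimulated with S1P near its EC80; inhibitor potency meaning antagonism of receptor activation by the natural agonist.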
Chain of Sphingosine 1-phosphate receptor 1 (P21453 whole entry): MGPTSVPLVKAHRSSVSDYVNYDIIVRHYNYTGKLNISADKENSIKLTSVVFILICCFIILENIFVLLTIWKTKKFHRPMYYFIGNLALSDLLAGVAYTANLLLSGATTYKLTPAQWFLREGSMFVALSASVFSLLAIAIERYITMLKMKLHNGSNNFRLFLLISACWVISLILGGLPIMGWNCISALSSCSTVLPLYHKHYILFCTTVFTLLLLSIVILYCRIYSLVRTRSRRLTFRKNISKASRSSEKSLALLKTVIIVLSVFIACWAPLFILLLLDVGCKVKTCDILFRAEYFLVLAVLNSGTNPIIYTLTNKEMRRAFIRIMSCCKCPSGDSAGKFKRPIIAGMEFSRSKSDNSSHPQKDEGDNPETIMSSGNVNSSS
The target in assay [15] is T3, Sphingosine 1-phosphate receptor 4 (Homo sapiens, UniProt O95977).
T3 sequence (O95977 whole entry): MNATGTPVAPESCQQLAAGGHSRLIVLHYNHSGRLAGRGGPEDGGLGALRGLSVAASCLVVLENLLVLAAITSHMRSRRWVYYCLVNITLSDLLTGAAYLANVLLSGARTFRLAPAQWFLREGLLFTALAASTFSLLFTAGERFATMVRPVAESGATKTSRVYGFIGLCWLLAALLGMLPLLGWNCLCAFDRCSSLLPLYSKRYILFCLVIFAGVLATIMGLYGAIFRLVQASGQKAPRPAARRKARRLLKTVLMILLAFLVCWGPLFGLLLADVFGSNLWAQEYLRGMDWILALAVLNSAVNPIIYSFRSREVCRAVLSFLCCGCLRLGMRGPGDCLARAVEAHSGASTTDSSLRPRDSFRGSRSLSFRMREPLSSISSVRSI
Nature of the assay: Fluorescence dose response cell-based high throughput screening assay for antagonists of the Sphingosine 1-Phosphate Receptor 4 (S1P4). [Related pubchem assays: 1524 (Confirmation in triplicates.), 1510 (Primary screen.)]. Type of assay: functional.

The nature of assay [16]: toxicity toward HepG2 liver cells – cell-based, plate reader, cherry-pick, antagonist series, cytotoxicity control, dose response (AID 743416). In kind it is functional.
Assay [17] has as its target T4, Heat shock factor protein 1 (Mus musculus, UniProt P38532).
T4 sequence (P38532 whole entry): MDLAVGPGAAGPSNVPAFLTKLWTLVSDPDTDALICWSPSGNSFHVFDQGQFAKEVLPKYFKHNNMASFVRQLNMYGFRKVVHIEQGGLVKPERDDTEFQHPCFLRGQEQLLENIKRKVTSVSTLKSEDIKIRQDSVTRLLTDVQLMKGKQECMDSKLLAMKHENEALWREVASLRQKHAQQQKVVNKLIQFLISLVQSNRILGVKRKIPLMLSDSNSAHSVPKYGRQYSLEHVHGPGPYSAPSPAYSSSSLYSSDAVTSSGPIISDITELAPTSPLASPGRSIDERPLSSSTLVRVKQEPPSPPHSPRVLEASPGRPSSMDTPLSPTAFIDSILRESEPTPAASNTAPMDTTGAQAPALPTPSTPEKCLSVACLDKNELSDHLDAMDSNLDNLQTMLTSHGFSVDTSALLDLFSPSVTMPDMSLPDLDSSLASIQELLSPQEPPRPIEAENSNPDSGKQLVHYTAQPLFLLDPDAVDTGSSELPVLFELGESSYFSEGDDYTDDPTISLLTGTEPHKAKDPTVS
Nature of the assay: decrease of HSF1-responsive luciferase luminescence – cell-based, NIH3T3, dose retest, confirmation (AID 2382).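 Note: NIH3T3 fibroblasts with HSF1-driven luciferase reporter stressed by proteasome inhibitor MG132; luminescence from HSF1-driven luciferase expression after 8 hours of MG132 stress.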 Type of assay: functional.

Assay [18] has as its target T5, Microphthalmia-associated transcription factor (Homo sapiens, UniProt O75030).
T5 sequence (O75030 whole entry): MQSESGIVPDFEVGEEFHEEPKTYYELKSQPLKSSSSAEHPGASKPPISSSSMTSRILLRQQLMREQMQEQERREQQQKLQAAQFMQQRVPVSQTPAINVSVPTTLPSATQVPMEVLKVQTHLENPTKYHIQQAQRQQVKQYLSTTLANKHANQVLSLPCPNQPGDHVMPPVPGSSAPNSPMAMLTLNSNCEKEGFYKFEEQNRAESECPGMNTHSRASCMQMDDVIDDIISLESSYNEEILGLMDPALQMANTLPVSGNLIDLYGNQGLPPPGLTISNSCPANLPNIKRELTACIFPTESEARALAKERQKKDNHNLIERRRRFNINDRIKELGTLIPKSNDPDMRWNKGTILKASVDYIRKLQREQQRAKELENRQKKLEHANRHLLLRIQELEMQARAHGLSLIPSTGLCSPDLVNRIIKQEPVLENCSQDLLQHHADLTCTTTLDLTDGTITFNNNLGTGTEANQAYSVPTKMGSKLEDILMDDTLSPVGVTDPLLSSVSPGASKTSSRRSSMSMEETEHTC
Nature of the assay: reducers of TRPM1 reporter luminescence, concentration series – cell-based, SK-MEL-5, cherry-picked, set 3, MITF inhibitor project, dose response (AID 493073).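 Note: SK-MEL-5 melanoma cells with luciferase driven by the MITF target TRPM1 promoter.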 In kind it is functional.

Assay [19] can be described thus: blockers of bursicon-stimulated LGR2 cAMP reporter – cell-based, HEK293, CRE-luciferase reporter, cherry pick, set 2, dose response (AID 743343).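 Note: transfected cells were stimulated with diluted bursicon conditioned medium after compound addition.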 Type of assay: functional. On the technique in general: In a reporter assay the amount or activity of a reporter protein is the signal.
A short description of assay [20]: Fluorescence-based cell-based high throughput dose response assay for inhibitors of the interaction of nucleotide-binding oligomerization domain containing 2 (NOD2) and the receptor-interacting serine-threonine kinase 2 (RIPK2). Type of assay: functional, Homo sapiens. The following applies: Homo sapiens.
Assay [21] in a line: blockade of melanocortin 4 receptor signaling – cell-based, plate reader, cherry pick, counter-screen for LGR2 antagonist project, dose response (AID 743444).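 Note: transfected HEK 293 cells stimulated with alpha-MSH peptide; potency of inhibitors of the alpha-MSH evoked signal.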 Type of assay: functional.
Assay [22] in a line: viability loss in HEK293 cells – cell-based, plate reader, cherry-picked samples, cytotoxicity control, dose response (AID 743446). In kind it is functional.
Assay [23] deals with Paired box protein Pax-8 (Homo sapiens, UniProt Q06710). Nature of the assay: PAX8 transcriptional activity inhibition in RMG-I – RMG-I cells, luciferase, cherry-pick, dose response (AID 687027).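 Note: luciferase reporter driven by Pax8 target thyroperoxidase promoter measured by SteadyGlo luminescence.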 In kind it is functional, cell-based.
Chain of Paired box protein Pax-8 (Q06710 whole entry): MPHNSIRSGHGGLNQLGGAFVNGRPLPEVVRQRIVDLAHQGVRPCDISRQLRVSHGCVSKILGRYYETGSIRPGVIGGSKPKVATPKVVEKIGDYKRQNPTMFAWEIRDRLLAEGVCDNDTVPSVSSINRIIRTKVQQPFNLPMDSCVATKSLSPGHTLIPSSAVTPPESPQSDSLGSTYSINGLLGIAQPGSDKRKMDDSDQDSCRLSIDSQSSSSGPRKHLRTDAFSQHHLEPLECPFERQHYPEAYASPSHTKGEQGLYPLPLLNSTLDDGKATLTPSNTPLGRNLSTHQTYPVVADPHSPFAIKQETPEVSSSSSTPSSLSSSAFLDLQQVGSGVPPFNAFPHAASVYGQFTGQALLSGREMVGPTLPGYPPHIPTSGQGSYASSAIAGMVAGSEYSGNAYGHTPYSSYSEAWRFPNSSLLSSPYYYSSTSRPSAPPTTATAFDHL

Chain of Ephrin type-A receptor 4 (Q03137 whole entry): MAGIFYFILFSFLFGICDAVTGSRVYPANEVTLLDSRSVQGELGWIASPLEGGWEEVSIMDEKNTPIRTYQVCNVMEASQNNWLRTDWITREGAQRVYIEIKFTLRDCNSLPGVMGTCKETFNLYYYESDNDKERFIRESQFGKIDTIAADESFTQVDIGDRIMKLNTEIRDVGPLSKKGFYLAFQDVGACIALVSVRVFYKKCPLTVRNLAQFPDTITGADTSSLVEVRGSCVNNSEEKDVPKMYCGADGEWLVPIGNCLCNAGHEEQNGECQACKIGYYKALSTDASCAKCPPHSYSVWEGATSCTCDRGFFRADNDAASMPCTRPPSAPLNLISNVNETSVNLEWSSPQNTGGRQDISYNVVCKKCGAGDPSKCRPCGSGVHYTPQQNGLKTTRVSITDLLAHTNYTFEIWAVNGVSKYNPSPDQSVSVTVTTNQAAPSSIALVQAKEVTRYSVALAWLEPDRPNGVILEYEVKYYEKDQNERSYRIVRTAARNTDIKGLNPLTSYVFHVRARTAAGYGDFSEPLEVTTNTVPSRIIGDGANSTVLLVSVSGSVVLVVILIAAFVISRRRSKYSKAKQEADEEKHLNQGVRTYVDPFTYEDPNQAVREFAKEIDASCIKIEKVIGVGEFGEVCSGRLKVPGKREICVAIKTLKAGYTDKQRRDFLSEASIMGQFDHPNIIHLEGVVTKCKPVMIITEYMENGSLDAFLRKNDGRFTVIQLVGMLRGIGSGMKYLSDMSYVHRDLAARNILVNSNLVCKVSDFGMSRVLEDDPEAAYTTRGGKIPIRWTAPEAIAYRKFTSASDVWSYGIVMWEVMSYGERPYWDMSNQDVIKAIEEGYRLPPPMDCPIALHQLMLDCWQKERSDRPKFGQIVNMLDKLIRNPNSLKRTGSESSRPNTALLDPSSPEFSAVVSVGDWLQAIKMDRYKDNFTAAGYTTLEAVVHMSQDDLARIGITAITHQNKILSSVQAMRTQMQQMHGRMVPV
Chain of Neuropeptide Y receptor type 1 (P25929 whole entry): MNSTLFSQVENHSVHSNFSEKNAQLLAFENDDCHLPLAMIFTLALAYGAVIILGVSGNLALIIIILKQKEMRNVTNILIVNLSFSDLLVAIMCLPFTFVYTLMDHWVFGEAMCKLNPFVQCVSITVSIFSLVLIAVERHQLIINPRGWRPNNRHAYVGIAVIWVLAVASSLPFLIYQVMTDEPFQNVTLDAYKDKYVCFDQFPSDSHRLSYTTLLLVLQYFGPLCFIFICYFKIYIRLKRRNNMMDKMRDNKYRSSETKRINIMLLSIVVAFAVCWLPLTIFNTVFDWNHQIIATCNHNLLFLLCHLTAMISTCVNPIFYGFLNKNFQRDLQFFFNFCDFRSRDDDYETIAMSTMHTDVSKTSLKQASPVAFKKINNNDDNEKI
Chain of Neuropeptide Y receptor type 2 (P49146 whole entry): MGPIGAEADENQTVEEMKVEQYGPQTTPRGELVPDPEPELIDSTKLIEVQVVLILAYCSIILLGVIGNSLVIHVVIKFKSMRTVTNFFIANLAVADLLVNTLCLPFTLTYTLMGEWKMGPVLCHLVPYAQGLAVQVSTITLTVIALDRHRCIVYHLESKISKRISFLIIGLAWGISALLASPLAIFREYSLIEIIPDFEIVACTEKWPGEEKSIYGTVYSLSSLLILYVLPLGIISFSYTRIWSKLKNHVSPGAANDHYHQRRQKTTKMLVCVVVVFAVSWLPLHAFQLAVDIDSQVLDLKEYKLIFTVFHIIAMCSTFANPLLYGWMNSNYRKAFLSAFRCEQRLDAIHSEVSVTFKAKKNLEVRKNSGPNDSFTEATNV

In the case of `COC(=O)CSc1nc(-c2ccccc2)cc(-c2ccco2)c1C#N`, the IC50 (in general, the point on the concentration scale where inhibition reaches its midpoint) in [1] is listed as > 100 µM (not active).

For `Cc1ccc(NC(S)=NCc2ccc3c(c2)OCO3)cc1C`, the IC50 is 9.96 µM (active) in [2] and 10 µM (not active) in [3].

Regarding `N#C/C(=C\c1ccc(O)c(O)c1)C(=O)NCCCc1ccccc1`, the half-maximal activity concentration (AC50) (as a rule, the concentration at which the activity in the assay is half-maximal) in assay [4] is 15.8 µM (inconclusive). The half-inhibitory concentration (IC50) in assay [5] is 21 µM (active); in assay [6] it was 1.7 µM (active).

For the compound `Cc1ccc(S(=O)(=O)n2nccc2-c2c(-c3ccc(Cl)cc3)noc2C)cc1`, the EC50 (as a rule, the concentration at which the effect is half-maximal) is > 29.9 µM (not active) in [7], > 29.9 µM (not active) in [8], 0.325 µM (active) in assay [9] and 0.253 µM (active) in assay [10].

Regarding `O=c1c(Cl)c(Cl)cnn1-c1ccccc1`, the half-maximal activity concentration (AC50) in assay [11] was 23.8 µM (active); in assay [12], 7.52 µM (active); in assay [13], 25.8 µM (active); in assay [16] it was 14.4 µM (active); in assay [18] it was 9.54 µM (active); in assay [19], 19 µM (active). The values for the half-maximal activity concentration (AC50) in [21], in [22] and in assay [23] were 16.3 µM (active), 4.49 µM (active) and 6.1 µM (active), respectively. Moreover, the half-inhibitory concentration (IC50) in assay [14] was 8.71 µM (active); in assay [15], 1.86 µM (active); in assay [20] it was 49.7 µM (inactive). Moreover, the EC50 in assay [17] is 5.45 µM (active).
